Earlier results as cited in patent US20220305218A1, “LUMINAL OXYGEN DELIVERY AND DEVICE FOR TREATING DISEASES AND CONDITIONS ASSOCIATED WITH STRICT ANAEROBIC MICROORGANISMS” (priority 2021, published 2022).

Row | SMILES | time C. difficile can persist in a vegetative state (C. difficile; room air (20% oxygen, 160 mm Hg)) [h] | oxygen partial pressure at which C. difficile is unable to grow (C. difficile; strict, obligate anaerobe) [mm Hg] | resistance rate (C. difficile strains) [%]
1 | O=O [oxygen] | ~24 | ≥ 3 | 
2 | Cc1ncc([N+](=O)[O-])n1CCO [metronidazole] |  |  | ~1
3 | CN[C@H](CC(C)C)C(=O)N[C@H]1C(=O)N[C@@H](CC(N)=O)C(=O)N[C@H]2C(=O)N[C@H]3C(=O)N[C@H](C(=O)N[C@H](C(=O)O)c4cc(O)cc(O)c4-c4cc3ccc4O)[C@H](O)c3ccc(c(Cl)c3)Oc3cc2cc(c3O[C@@H]2O[C@H](CO)[C@@H](O)[C@H](O)[C@H]2O[C@H]2C[C@](C)(N)[C@H](O)[C@H](C)O2)Oc2ccc(cc2Cl)[C@H]1O [vancomycin] |  |  | ~1
